Experimental data as given in PubChem BioAssay (NCI).
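Abbreviation: GI50, concentration required for 50% inhibition of growth. TGI marks complete inhibition of growth.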

Key:
Assay in all cases: inhibition of tumour cell growth, NCI panel, 384-well format
786-0 renal = tested on: 786-0 renal
A498 renal = tested on: A498 renal
A549 NSCLC = tested on: A549 NSCLC
ACHN renal = tested on: ACHN renal
BT-549 breast = tested on: BT-549 breast
CAKI-1 renal = tested on: CAKI-1 renal
CCRF-CEM leukemia = tested on: CCRF-CEM leukemia
COLO 205 colon = tested on: COLO 205 colon
DU-145 prostate = tested on: DU-145 prostate
EKVX NSCLC = tested on: EKVX NSCLC
HCC-2998 colon = tested on: HCC-2998 colon
HCT-15 colon = tested on: HCT-15 colon
HL-60(TB) leukemia = tested on: HL-60(TB) leukemia
HOP-62 NSCLC = tested on: HOP-62 NSCLC
HOP-92 NSCLC = tested on: HOP-92 NSCLC
HS 578T breast = tested on: HS 578T breast
HT29 colon = tested on: HT29 colon
IGROV1 ovarian = tested on: IGROV1 ovarian
K-562 leukemia = tested on: K-562 leukemia
KM12 colon = tested on: KM12 colon
LOX IMVI melanoma = tested on: LOX IMVI melanoma
M14 melanoma = tested on: M14 melanoma
MALME-3M melanoma = tested on: MALME-3M melanoma
MCF7 breast = tested on: MCF7 breast
MDA-MB-231 breast = tested on: MDA-MB-231 breast
MDA-MB-435 melanoma = tested on: MDA-MB-435 melanoma
MDA-MB-468 breast = tested on: MDA-MB-468 breast
MOLT-4 leukemia = tested on: MOLT-4 leukemia
NCI-H226 lung = tested on: NCI-H226 lung
NCI-H23 lung = tested on: NCI-H23 lung
NCI-H322M lung = tested on: NCI-H322M lung
NCI-H460 NSCLC = tested on: NCI-H460 NSCLC
NCI-H522 lung = tested on: NCI-H522 lung
NCI/ADR-RES ovarian = tested on: NCI/ADR-RES ovarian
OVCAR-3 ovarian = tested on: OVCAR-3 ovarian
OVCAR-4 ovarian = tested on: OVCAR-4 ovarian
OVCAR-5 ovarian = tested on: OVCAR-5 ovarian
OVCAR-8 ovarian = tested on: OVCAR-8 ovarian
PC-3 prostate = tested on: PC-3 prostate
RPMI-8226 leukemia = tested on: RPMI-8226 leukemia
RXF 393 renal = tested on: RXF 393 renal
SF-268 CNS = tested on: SF-268 CNS
SF-295 CNS = tested on: SF-295 CNS
SF-539 CNS = tested on: SF-539 CNS
SK-MEL-28 melanoma = tested on: SK-MEL-28 melanoma
SK-MEL-5 melanoma = tested on: SK-MEL-5 melanoma
SK-OV-3 ovarian = tested on: SK-OV-3 ovarian
SN12C renal = tested on: SN12C renal
SNB-19 CNS = tested on: SNB-19 CNS
SNB-75 CNS = tested on: SNB-75 CNS
SR leukemia = tested on: SR leukemia
SW-620 colon = tested on: SW-620 colon
T-47D breast = tested on: T-47D breast
TK-10 renal = tested on: TK-10 renal
U251 glioblastoma = tested on: U251 glioblastoma
UACC-257 melanoma = tested on: UACC-257 melanoma
UACC-62 melanoma = tested on: UACC-62 melanoma
UO-31 renal = tested on: UO-31 renal

`COCCn1c2c([n+](Cc3cnccn3)c1C)C(=O)c1ccccc1C2=O` showed a GI50 ([…]-0 renal) of under 10 nM, a TGI (786-0 renal) of 13 nM and a GI50 (A498 renal) of 159 nM. For the same molecule, the TGI (A498 renal) was 1230 nM, the GI50 (A549 NSCLC) was under 10 nM and the TGI (A549 NSCLC) was 12.9 nM. For the same molecule, the GI50 (ACHN renal) was 17.6 nM, the TGI (ACHN renal) was 45.7 nM and the GI50 (BT-549 breast) was under 10 nM. For the same molecule, the TGI (BT-549 breast) was under 10 nM, the GI50 (CAKI-1 renal) was under 10 nM and the TGI (CAKI-1 renal) was under 10 nM. For the same molecule, the GI50 (CCRF-CEM leukemia) was under 10 nM, the TGI (CCRF-CEM leukemia) was 16.5 nM and the GI50 (COLO 205 colon) was under 10 nM. The TGI (COLO 205 colon) was 11 nM, the GI50 (DU-145 prostate) was under 10 nM and the TGI (DU-145 prostate) was under 10 nM. The GI50 (EKVX NSCLC) was under 10 nM, the TGI (EKVX NSCLC) was under 10 nM and the GI50 (HCC-2998 colon) was under 10 nM. The TGI (HCC-2998 colon) was 14.3 nM, the GI50 (HCT-15 colon) was 40.3 nM and the TGI (HCT-15 colon) was 735 nM. The GI50 (HL-60(TB) leukemia) was under 10 nM, the TGI (HL-60(TB) leukemia) was under 10 nM and the GI50 (HOP-62 NSCLC) was under 10 nM. The TGI (HOP-62 NSCLC) was 15.2 nM, the GI50 (HOP-92 NSCLC) was under 10 nM and the TGI (HOP-92 NSCLC) was under 10 nM. The GI50 (HS 578T breast) was 19.8 nM, the TGI (HS 578T breast) was 125 nM and the GI50 (HT29 colon) was 18 nM. For the same molecule, the TGI (HT29 colon) was 55.4 nM, the GI50 (IGROV1 ovarian) was under 10 nM and the TGI (IGROV1 ovarian) was under 10 nM. For the same molecule, the GI50 (K-562 leukemia) was under 10 nM, the TGI (K-562 leukemia) was under 10 nM and the GI50 (KM12 colon) was 26 nM. It also gave a TGI (KM12 colon) of 114 nM, a GI50 (LOX IMVI melanoma) of under 10 nM and a TGI (LOX IMVI melanoma) of under 10 nM. For the same molecule, the GI50 (M14 melanoma) was under 10 nM, the TGI (M14 melanoma) was 12 nM and the GI50 (MALME-3M melanoma) was 16.1 nM. It also gave a TGI (MALME-3M melanoma) of 37.9 nM, a GI50 (MCF7 breast) of under 10 nM and a TGI (MCF7 breast) of under 10 nM. The GI50 (MDA-MB-231 breast) was under 10 nM, the TGI (MDA-MB-231 breast) was under 10 nM and the GI50 (MDA-MB-435 melanoma) was under 10 nM. For the same molecule, the TGI (MDA-MB-435 melanoma) was under 10 nM, the GI50 (MDA-MB-468 breast) was under 10 nM and the TGI (MDA-MB-468 breast) was under 10 nM. For the same molecule, the GI50 (MOLT-4 leukemia) was under 10 nM, the TGI (MOLT-4 leukemia) was under 10 nM and the GI50 (NCI-H226 lung) was 11.4 nM. For the same molecule, the TGI (NCI-H226 lung) was 40.4 nM, the GI50 (NCI-H23 lung) was under 10 nM and the TGI (NCI-H23 lung) was under 10 nM. It also gave a GI50 (NCI-H322M lung) of under 10 nM, a TGI (NCI-H322M lung) of 25.9 nM and a GI50 (NCI-H460 NSCLC) of under 10 nM. The TGI (NCI-H460 NSCLC) was 12.2 nM, the GI50 (NCI-H522 lung) was under 10 nM and the TGI (NCI-H522 lung) was under 10 nM. For the same molecule, the GI50 (NCI/ADR-RES ovarian) was 18800 nM, the TGI (NCI/ADR-RES ovarian) was over 100000 nM and the GI50 (OVCAR-3 ovarian) was under 10 nM. The TGI (OVCAR-3 ovarian) was under 10 nM, the GI50 (OVCAR-4 ovarian) was under 10 nM and the TGI (OVCAR-4 ovarian) was under 10 nM. It also gave a GI50 (OVCAR-5 ovarian) of under 10 nM, a TGI (OVCAR-5 ovarian) of 16.5 nM and a GI50 (OVCAR-8 ovarian) of under 10 nM. For the same molecule, the TGI (OVCAR-8 ovarian) was under 10 nM, the GI50 (PC-3 prostate) was under 10 nM and the TGI (PC-3 prostate) was under 10 nM. It also gave a GI50 (RPMI-8226 leukemia) of under 10 nM, a TGI (RPMI-8226 leukemia) of under 10 nM and a GI50 (RXF 393 renal) of under 10 nM. The TGI (RXF 393 renal) was 12.1 nM, the GI50 (SF-268 CNS) was under 10 nM and the TGI (SF-268 CNS) was under 10 nM. For the same molecule, the GI50 (SF-295 CNS) was 10.4 nM, the TGI (SF-295 CNS) was 22.5 nM and the GI50 (SF-539 CNS) was under 10 nM. It also gave a TGI (SF-539 CNS) of under 10 nM, a GI50 (SK-MEL-28 melanoma) of under 10 nM and a TGI (SK-MEL-28 melanoma) of under 10 nM. For the same molecule, the GI50 (SK-MEL-5 melanoma) was under 10 nM, the TGI (SK-MEL-5 melanoma) was under 10 nM and the GI50 (SK-OV-3 ovarian) was under 10 nM. The TGI (SK-OV-3 ovarian) was under 10 nM, the GI50 (SN12C renal) was under 10 nM and the TGI (SN12C renal) was under 10 nM. For the same molecule, the GI50 (SNB-19 CNS) was under 10 nM, the TGI (SNB-19 CNS) was under 10 nM and the GI50 (SNB-75 CNS) was under 10 nM. For the same molecule, the TGI (SNB-75 CNS) was under 10 nM, the GI50 (SR leukemia) was under 10 nM and the TGI (SR leukemia) was under 10 nM. The GI50 (SW-620 colon) was under 10 nM, the TGI (SW-620 colon) was 10.3 nM and the GI50 (T-47D breast) was under 10 nM. For the same molecule, the TGI (T-47D breast) was under 10 nM, the GI50 (TK-10 renal) was under 10 nM and the TGI (TK-10 renal) was 24 nM. The GI50 (U251 glioblastoma) was under 10 nM, the TGI (U251 glioblastoma) was under 10 nM and the GI50 (UACC-257 melanoma) was under 10 nM. It also gave a TGI (UACC-257 melanoma) of under 10 nM, a GI50 (UACC-62 melanoma) of under 10 nM and a TGI (UACC-62 melanoma) of under 10 nM. For the same molecule, the GI50 (UO-31 renal) was 377 nM and the TGI (UO-31 renal) was 7730 nM.
